Laboratory results taken from the NIST ThermoML archive (doi:10.1021/je600554h).
Numbers after ± are expanded uncertainties.

Assay: xn = mol fraction of the nth substance listed
Details: Liquid; for viscosity: 100 kPa, Capillary tube (Ostwald / Ubbelohde) method; for mass density: 1000 kPa, Vibrating tube method

COC(C)(C)C [2-methoxy-2-methylpropane] + CCCCCCC
Details | mass density [kg/m3] | viscosity [mPa·s]
273.15 K, x1 = 0.1004 | – | 0.515 ± 0.009
273.15 K, x1 = 0.1042 | 705.19 ± 0.25 | –
273.15 K, x1 = 0.1998 | – | 0.507 ± 0.009
273.15 K, x1 = 0.2146 | 710.4 ± 0.25 | –
273.15 K, x1 = 0.3008 | – | 0.494 ± 0.009
273.15 K, x1 = 0.3024 | 714.67 ± 0.26 | –
273.15 K, x1 = 0.3982 | 719.73 ± 0.27 | –
273.15 K, x1 = 0.4024 | – | 0.485 ± 0.009
273.15 K, x1 = 0.4996 | 725.44 ± 0.28 | –
273.15 K, x1 = 0.5007 | – | 0.476 ± 0.009
273.15 K, x1 = 0.5875 | 730.85 ± 0.3 | –
273.15 K, x1 = 0.5989 | – | 0.468 ± 0.009
273.15 K, x1 = 0.6981 | – | 0.462 ± 0.009
273.15 K, x1 = 0.6985 | 738.08 ± 0.31 | –
273.15 K, x1 = 0.7887 | – | 0.456 ± 0.009
273.15 K, x1 = 0.794 | 744.8 ± 0.33 | –
273.15 K, x1 = 0.889 | 752 ± 0.33 | –
273.15 K, x1 = 0.898 | – | 0.448 ± 0.009
278.15 K, x1 = 0.1004 | – | 0.484 ± 0.009
278.15 K, x1 = 0.1042 | 700.96 ± 0.25 | –
278.15 K, x1 = 0.1998 | – | 0.474 ± 0.009
278.15 K, x1 = 0.2146 | 706.09 ± 0.25 | –
278.15 K, x1 = 0.3008 | – | 0.464 ± 0.009
278.15 K, x1 = 0.3024 | 710.3 ± 0.26 | –
278.15 K, x1 = 0.3982 | 715.27 ± 0.27 | –
278.15 K, x1 = 0.4024 | – | 0.456 ± 0.009
278.15 K, x1 = 0.4996 | 720.9 ± 0.28 | –
278.15 K, x1 = 0.5007 | – | 0.448 ± 0.009
278.15 K, x1 = 0.5875 | 726.22 ± 0.29 | –
278.15 K, x1 = 0.5989 | – | 0.44 ± 0.009
278.15 K, x1 = 0.6981 | – | 0.433 ± 0.009
278.15 K, x1 = 0.6985 | 733.34 ± 0.3 | –
278.15 K, x1 = 0.7887 | – | 0.427 ± 0.009
278.15 K, x1 = 0.794 | 739.96 ± 0.32 | –
278.15 K, x1 = 0.889 | 747.05 ± 0.33 | –
278.15 K, x1 = 0.898 | – | 0.421 ± 0.008
283.15 K, x1 = 0.1004 | – | 0.455 ± 0.009
283.15 K, x1 = 0.1042 | 696.72 ± 0.25 | –
283.15 K, x1 = 0.1998 | – | 0.446 ± 0.009
283.15 K, x1 = 0.2146 | 701.76 ± 0.25 | –
283.15 K, x1 = 0.3008 | – | 0.437 ± 0.009
283.15 K, x1 = 0.3024 | 705.9 ± 0.26 | –
283.15 K, x1 = 0.3982 | 710.79 ± 0.27 | –
283.15 K, x1 = 0.4024 | – | 0.429 ± 0.009
283.15 K, x1 = 0.4996 | 716.32 ± 0.28 | –
283.15 K, x1 = 0.5007 | – | 0.422 ± 0.009
283.15 K, x1 = 0.5875 | 721.55 ± 0.29 | –
283.15 K, x1 = 0.5989 | – | 0.414 ± 0.008
283.15 K, x1 = 0.6981 | – | 0.408 ± 0.008
283.15 K, x1 = 0.6985 | 728.56 ± 0.3 | –
283.15 K, x1 = 0.7887 | – | 0.403 ± 0.008
283.15 K, x1 = 0.794 | 735.08 ± 0.32 | –
283.15 K, x1 = 0.889 | 742.07 ± 0.33 | –
283.15 K, x1 = 0.898 | – | 0.397 ± 0.008
288.15 K, x1 = 0.1004 | – | 0.429 ± 0.009
288.15 K, x1 = 0.1042 | 692.45 ± 0.25 | –
288.15 K, x1 = 0.1998 | – | 0.421 ± 0.009
288.15 K, x1 = 0.2146 | 697.4 ± 0.25 | –
288.15 K, x1 = 0.3008 | – | 0.413 ± 0.009
288.15 K, x1 = 0.3024 | 701.47 ± 0.26 | –
288.15 K, x1 = 0.3982 | 706.28 ± 0.26 | –
288.15 K, x1 = 0.4024 | – | 0.405 ± 0.008
288.15 K, x1 = 0.4996 | 711.72 ± 0.27 | –
288.15 K, x1 = 0.5007 | – | 0.398 ± 0.008
288.15 K, x1 = 0.5875 | 716.86 ± 0.29 | –
288.15 K, x1 = 0.5989 | – | 0.391 ± 0.008
288.15 K, x1 = 0.6981 | – | 0.385 ± 0.008
288.15 K, x1 = 0.6985 | 723.76 ± 0.3 | –
288.15 K, x1 = 0.7887 | – | 0.38 ± 0.008
288.15 K, x1 = 0.794 | 730.17 ± 0.32 | –
288.15 K, x1 = 0.889 | 737.04 ± 0.32 | –
288.15 K, x1 = 0.898 | – | 0.375 ± 0.008
293.15 K, x1 = 0.1004 | – | 0.406 ± 0.009
293.15 K, x1 = 0.1042 | 688.15 ± 0.25 | –
293.15 K, x1 = 0.1998 | – | 0.398 ± 0.008
293.15 K, x1 = 0.2146 | 693.02 ± 0.25 | –
293.15 K, x1 = 0.3008 | – | 0.39 ± 0.008
293.15 K, x1 = 0.3024 | 697.02 ± 0.25 | –
293.15 K, x1 = 0.3982 | 701.73 ± 0.26 | –
293.15 K, x1 = 0.4024 | – | 0.383 ± 0.008
293.15 K, x1 = 0.4996 | 707.09 ± 0.27 | –
293.15 K, x1 = 0.5007 | – | 0.376 ± 0.008
293.15 K, x1 = 0.5875 | 712.13 ± 0.29 | –
293.15 K, x1 = 0.5989 | – | 0.369 ± 0.008
293.15 K, x1 = 0.6981 | – | 0.364 ± 0.008
293.15 K, x1 = 0.6985 | 718.92 ± 0.3 | –
293.15 K, x1 = 0.7887 | – | 0.359 ± 0.008
293.15 K, x1 = 0.794 | 725.22 ± 0.31 | –
293.15 K, x1 = 0.889 | 731.98 ± 0.32 | –
298.15 K, x1 = 0.1004 | – | 0.384 ± 0.008
298.15 K, x1 = 0.1042 | 683.83 ± 0.25 | –
298.15 K, x1 = 0.1998 | – | 0.377 ± 0.008
298.15 K, x1 = 0.2146 | 688.62 ± 0.25 | –
298.15 K, x1 = 0.3008 | – | 0.37 ± 0.008
298.15 K, x1 = 0.3024 | 692.54 ± 0.25 | –
298.15 K, x1 = 0.3982 | 697.16 ± 0.26 | –
298.15 K, x1 = 0.4024 | – | 0.363 ± 0.008
298.15 K, x1 = 0.4996 | 702.42 ± 0.27 | –
298.15 K, x1 = 0.5007 | – | 0.357 ± 0.008
298.15 K, x1 = 0.5875 | 707.37 ± 0.28 | –
298.15 K, x1 = 0.6985 | 714.04 ± 0.29 | –
298.15 K, x1 = 0.794 | 720.23 ± 0.31 | –
298.15 K, x1 = 0.889 | 726.87 ± 0.32 | –
303.15 K, x1 = 0.1004 | – | 0.365 ± 0.008
303.15 K, x1 = 0.1042 | 679.49 ± 0.25 | –
303.15 K, x1 = 0.1998 | – | 0.358 ± 0.008
303.15 K, x1 = 0.2146 | 684.18 ± 0.25 | –
303.15 K, x1 = 0.3008 | – | 0.351 ± 0.008
303.15 K, x1 = 0.3024 | 688.02 ± 0.25 | –
303.15 K, x1 = 0.3982 | 692.55 ± 0.26 | –
303.15 K, x1 = 0.4024 | – | 0.344 ± 0.008
303.15 K, x1 = 0.4996 | 697.72 ± 0.27 | –
303.15 K, x1 = 0.5875 | 702.57 ± 0.28 | –
303.15 K, x1 = 0.6985 | 709.11 ± 0.29 | –
303.15 K, x1 = 0.794 | 715.19 ± 0.31 | –
303.15 K, x1 = 0.889 | 721.72 ± 0.31 | –
308.15 K, x1 = 0.1004 | – | 0.347 ± 0.008
308.15 K, x1 = 0.1042 | 675.12 ± 0.25 | –
308.15 K, x1 = 0.1998 | – | 0.34 ± 0.008
308.15 K, x1 = 0.2146 | 679.71 ± 0.24 | –
308.15 K, x1 = 0.3024 | 683.48 ± 0.25 | –
308.15 K, x1 = 0.3982 | 687.91 ± 0.26 | –
308.15 K, x1 = 0.4996 | 692.98 ± 0.27 | –
308.15 K, x1 = 0.5875 | 697.73 ± 0.28 | –
308.15 K, x1 = 0.6985 | 704.14 ± 0.29 | –
308.15 K, x1 = 0.794 | 710.11 ± 0.3 | –
313.15 K, x1 = 0.1004 | – | 0.33 ± 0.008
313.15 K, x1 = 0.1042 | 670.71 ± 0.25 | –
313.15 K, x1 = 0.2146 | 675.19 ± 0.24 | –
313.15 K, x1 = 0.3024 | 678.89 ± 0.25 | –
313.15 K, x1 = 0.3982 | 683.23 ± 0.26 | –
313.15 K, x1 = 0.4996 | 688.2 ± 0.26 | –
313.15 K, x1 = 0.5875 | 692.85 ± 0.28 | –
313.15 K, x1 = 0.6985 | 699.12 ± 0.28 | –
318.15 K, x1 = 0.1042 | 666.28 ± 0.24 | –
318.15 K, x1 = 0.2146 | 670.65 ± 0.24 | –
318.15 K, x1 = 0.3024 | 674.26 ± 0.25 | –
318.15 K, x1 = 0.3982 | 678.51 ± 0.25 | –
318.15 K, x1 = 0.4996 | 683.38 ± 0.26 | –
318.15 K, x1 = 0.5875 | 687.92 ± 0.27 | –
323.15 K, x1 = 0.1042 | 661.8 ± 0.24 | –
323.15 K, x1 = 0.2146 | 666.08 ± 0.24 | –
323.15 K, x1 = 0.3024 | 669.6 ± 0.25 | –
323.15 K, x1 = 0.3982 | 673.75 ± 0.25 | –
323.15 K, x1 = 0.4996 | 678.5 ± 0.26 | –
328.15 K, x1 = 0.1042 | 657.27 ± 0.24 | –
328.15 K, x1 = 0.2146 | 661.46 ± 0.24 | –
328.15 K, x1 = 0.3024 | 664.89 ± 0.24 | –
328.15 K, x1 = 0.3982 | 668.93 ± 0.25 | –
333.15 K, x1 = 0.1042 | 652.74 ± 0.24 | –
333.15 K, x1 = 0.2146 | 656.77 ± 0.24 | –
333.15 K, x1 = 0.3024 | 660.13 ± 0.24 | –
338.16 K, x1 = 0.1042 | 648.13 ± 0.24 | –
338.16 K, x1 = 0.2146 | 652.07 ± 0.24 | –
343.16 K, x1 = 0.1042 | 643.27 ± 0.24 | –
